Experimental data: patent publication US4921871A, “Enolamides, pharmaceutical compositions and methods of use thereof for treating inflammation” (Warner-Lambert Company, priority 1987, dated 1990)
pIC50: −log10 of the molar value. One block for each molecule: values may come before it.

Tests used:
[1] = tested on: Human Leukocyte Lipoxygenase; test: Human Leukocyte Lipoxygenase Assay (LDA-H); format: biochemical
Method: Whole blood is collected from normal volunteers and spun in a refrigerated centrifuge for four minutes at 1°-6° C. at 3800 g. The buffy coat is manually separated and washed twice with chilled 0.83% NH4 Cl and centrifuged at 1000 RPM for ten minutes at 4° C. The white cell is suspended in culture media-EMEM supplemented with 6% Agamma human serum, tricine buffer, and neomycin and recentrifuged at 1000 g to yield a pellet containing the leukocytes used for the preparation of the acetone pentane powder.
The acetone-pentane powder is prepared utilizing a modification of the procedure reported for human platelet lipoxygenase. See Siegel, et al, Arachidonate Metabolism via Lipoxygenase and 12-L-hydro-peroxy-5 Eicosatetraenoic Acid Peroxidase Sensitive to Antiinflammatory Drugs, Proc. Natl. Acad. Sci., U.S.A. 77:308, 1980 and D. P. Wallach and V. R. Brown, A Novel Preparation of Human Platlet Lipoxygenase, Biochem. Biophys. Acta. 663:361, 1981. Buffy coat prepared above is resuspended in 5-7 volumes of cold 0.1M Tris buffer, pH 7.4 containing 0.154M NaCl. The suspension is centrifuged at 13,300 g for ten minutes at 4° C. The resultant pellet is retained, resuspended in five volumes of cold acetone, recentrifuged at 13,300 g and resuspended in five volumes of cold pentane. The pentane suspension is centrifuged for ten minutes at 13,300 g to give a pellet which is dried in the cold under vacuum with periodic pulverization. The dry powder is stable for several weeks when stored at -80° C.
Enzyme stock solution is prepared in the following manner. About 15 mg of the acetone-pentane powder is suspended in 4 ml of cold tris buffer (0.1M, pH 7.4), allowed to stand for five minutes, and homogenized thoroughly. The homogenate is sonicated three times for 15 seconds each time, diluted to 7 ml with cold tris buffer (0.1M, pH 7.4), and centrifuged at 4° C. for 60 minutes at 13,300 g. The supernatent is retained and diluted to a total of 10 ml with cold tris buffer (0.1M, pH 7.4) to give the stock enzyme solution. Additional dilutions of 2-50 fold are done as necessary to locate optimal enzyme reaction rate in the assay described below.
Substrate solution is prepared at 100 μM or 1.0 μM concentrations of arachidonic acid or linoleic acid in 0.1M tris buffer, pH 9.0 containing 20% ethanol.
The enzyme reaction is followed spectrophotometrically by the appearance of a conjugated diene product at 234 nm. The reaction is monitored at 24° C. using a Gilford Model 2600 spectrophotometer. […] The effects of inhibitors on the reaction are compared with control reactions run under indentical conditions. Routinely, each compounds of the present invention is incubated with the enzyme for five minutes prior to addition of substrate to initiate the reaction. Inhibition expressed as IC50 as molar concentration of the compound required to reduce reaction rate to 50% control.

[2] = target: T1, human leukocyte 5-lipoxygenase (Homo sapiens, UniProt P09917); test: 5-Lipoxygenase assay in human leukocytes, formation of 5-HETE (5LOA; 5LOA1 or 5LOA2 not specified); format: cell-based
T1 construct: endogenous in cells; host or cells: leukocytes from fresh human blood
T1 sequence (P09917 1-674): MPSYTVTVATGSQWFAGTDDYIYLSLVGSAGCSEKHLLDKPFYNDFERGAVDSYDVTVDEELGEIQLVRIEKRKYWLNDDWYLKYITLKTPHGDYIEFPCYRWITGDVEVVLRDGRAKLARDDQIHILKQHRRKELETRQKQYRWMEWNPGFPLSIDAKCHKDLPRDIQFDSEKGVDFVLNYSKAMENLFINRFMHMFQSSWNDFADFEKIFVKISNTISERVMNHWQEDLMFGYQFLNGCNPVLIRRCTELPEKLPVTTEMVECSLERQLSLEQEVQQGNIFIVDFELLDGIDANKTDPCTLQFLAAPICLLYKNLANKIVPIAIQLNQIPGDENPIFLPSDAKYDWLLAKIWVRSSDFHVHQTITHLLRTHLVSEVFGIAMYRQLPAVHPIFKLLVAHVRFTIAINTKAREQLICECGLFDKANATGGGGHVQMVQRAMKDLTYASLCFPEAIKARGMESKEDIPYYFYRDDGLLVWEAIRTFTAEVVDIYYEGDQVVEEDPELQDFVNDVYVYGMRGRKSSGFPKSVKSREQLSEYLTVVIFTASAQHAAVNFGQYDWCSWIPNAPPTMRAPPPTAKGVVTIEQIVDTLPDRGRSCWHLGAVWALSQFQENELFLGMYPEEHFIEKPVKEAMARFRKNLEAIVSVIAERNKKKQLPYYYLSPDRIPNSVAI
Description: To Evaluate the Effect of Each Compounds as a 5-Lipoxygenase Inhibitor in Comparison to Standard Reference Agents in Human Leukocytes (5LOAl)
The purpose of this assay is to evaluate the activity of each compound as an inhibitor of human leukocyte 5-lipoxygenase.
Arachidonic acid and calcium ionophore A23l87 are obtained from Sigma (St. Louis, Mo.). Silica gel plates, GF are obtained from Analtech (Newark, Del.). Arachidonic acid, (1-^14 C) and 5-HETE (^3 H), 5 (S)-hydroxy-6-trans, 8,11,14-cis eicosatetraenoic acid, are obtained from New England Nuclear (Boston, Mass.). Six percent Dextran-70 in 0.9% NaCl is obtained from Cutter Labs (Berkeley, Calif.).
Fresh blood from normal adult men who had not received any drugs for at least the previous five days is obtained by the Community Research Clinic (WL/PD) using venipuncture and collected into heparinized vacuotainer tubes. To every 100 ml of pooled blood is added 25 ml of dextran solution (6% dextran -70 in 0.9% sodium chloride containing 3% dextrose) and this is mixed gently in a plastic cylinder. The mixture is left to stand at room temperature for at least 90 minutes. The upper layer which is rich in leukocytes and platelets is then carefully decanted into 50 ml plastic tubes and centrifuged at about 100×g for eight minutes in an IEC centrifuge and rotor number 269 (about 600 rpm). The supernatant fluid is discarded and the pellet is resuspended in 10 ml of 0.87% ammonium chloride for exactly two minutes. This procedure is to lyse completely contaminating red blood cells. Leukocytes are then separated by centrifugation for ten minutes. The pellet is washed three times by suspension in 20 ml PBS (sodium chloride, 7.1 g; Na2 HPO4, 1.15 g; KH2 PO4, 0.2 g, and KCl, 0.2 g/L) and centrifuged as before. The final pellet is suspended in PBS containing 0.87 mM CaCl2. Viability of the cells is then checked using trypan blue exclusion method and is found to be over 90%.
Leukocyte cells in suspension (0.98 ml) are incubated with or without test compounds for five minutes at 37° C. in a shaking water bath. At this time a 17 μl mixture is prepared per 1 ml of cell suspension: 100 mM arachidonic acid, 1 μl, 0.05 μCi ^14 C-arachidonic acid in 5 .rho.l; 1 mM calcium ionophore A23187, 10 μl (1). This mixture is added and the incubation continued for five minutes. The reaction is stopped by adding four volumes of absolute ethanol and the mixture is kept in ice for 30 minutes. The floculated precipitate is separated by centrifugation at about 37,000×g for 20 minutes (Beckman Instruments rotor number 40). The alcohol extract is taken to dryness under a stream of nitrogen and the residue is dissolved in 100-200 μl absolute ethanol. At the time any turbidity is removed by centrifugation. An aliquot (25-50 μl) is applied onto 20×20 cm silica gel TLC plate and developed using the following solvent system: diethyl ether, petroleum ether (2040° C.), acetic acid (50:50: 1 v/v). Zones of 1 cm apart are scraped from the TLC plate and transferred to mini-vials. Methanol (0.5 ml) is added to dissolve the radioactivity adsorbed to the silica gel and scintillation fluid (H.P., Beckman), 5 ml is then added and vials are counted in a liquid scintillation counter. A sample of ^3 H-5-HETE is applied and used for the identification of the formed 5-HETE.
Total radioactivity in the test as well as the control samples are normalized and the amount of 5-HETE present is calculated accordingly.
IC50 values are defined as the concentrations of test agents which caused a 50% inhibition of the formation of 5-HETE as compared to control and are determined by inspection of the concentration-response curves.
The formation of 5-HETE in human leukocytes is considered a measure of 5-lipoxygenase activity. The protocol is described in the following.
Fresh heparinized or EDTA treated human blood is mixed with 6% dextran-3% dextrose in isotonic saline in the ratio 0.25 ml dextran solution per 1.0 ml blood. […]

SMILES: O=C(Nc1ccc(CCc2ccc(C(F)(F)F)cc2)cc1)C1CS(=O)(=O)c2ccccc2C1=O (centres unmarked) [Example 44]
- LDAH, % Inhibition ([1]; 2.50 E -5 M): 0.0%
- 5LOA, % Inhibition ([2]; 1.00 E -5 M): +19.6%
- 5LOA, % Inhibition ([2]; 2.00 E -5 M): +5.8%
- 5LOA, % Inhibition ([2]; 4.00 E -5 M): 30.0%

SMILES: O=C(Nc1ccc(CCc2ccc3ccccc3c2)cc1)C1=C(O)c2ccccc2S(=O)(=O)C1 [Example 51, 4-Hydroxy-N-[4-[2-(2-naphthalenyl)ethyl]phenyl]-2H-1-benzothiopyran-3-carboxamide, 1,1-dioxide]
- LDAH, % Inhibition ([1]; 2.50 E -5 M): 0.0%

SMILES: CCCCCCc1ccc(NC(=O)C2CS(=O)(=O)c3ccccc3C2=O)cc1 (centres unmarked) [Example 58, N-(4-Hexylphenyl)-3,4-dihydro-4-oxo-2H-1-benzothiopyran-3-carboxamide, 1-1-dioxide]
- LDAH, % Inhibition ([1]; 8.00 E -5 M): 0.0%

SMILES: CCCCCCCCc1ccc(NC(=O)C2CS(=O)(=O)c3ccccc3C2=O)cc1 (centres unmarked) [Example 59, 3,4-Dihydro-N-(4-octylphenyl)-4-oxo-2H-1-benzothiopyran-3-carboxamide, 1,1-dioxide]
- LDAH, % Inhibition ([1]; 2.50 E -5 M): 0.0%

SMILES: O=C(Nc1ccc(CCc2cccc(O)c2)cc1)C1CS(=O)(=O)c2ccccc2C1=O (centres unmarked) [Example 82]
- LDAH, % Inhibition ([1]; 8.00 E -5 M): 0.0%

SMILES: COc1ccc(CCc2ccc(NC(=O)C3Oc4cc5ccccc5cc4C3=O)cc2)cc1OC (centres unmarked) [Example 101, Naphtho[2,3-b]furan-2-carboxamide, N-[4-[2-(3,4-dimethoxyphenyl)ethyl]phenyl]-2,3-dihydroxy-3-oxo]
- LDAH, % Inhibition ([1]; 2.50 E -5 M): 0.0%

SMILES: COc1ccc(CCc2ccc(NC(=O)C(=O)c3oc4cc(OC)c(OC)cc4c3O)cc2)cc1OC [Example 115, 2-Benzofuranacetamide, N-[4-[2-(3,4-dimethoxyphenyl)ethyl]phenyl]-3-hydroxy-5,6-dimethoxy-α-oxo]
- LDAH, % Inhibition ([1]; 8.00 E -5 M): 0.0%

The remaining lines, values ahead:

- LDAH, % Inhibition ([1]; 2.50 E -5 M): 0.0%
SMILES: COc1ccc(CCc2ccc(NC(=O)C(=O)C3Oc4cc5ccccc5cc4C3=O)cc2)cc1OC (stereo not drawn) [Example 117, Naptho[2,3-b]furan-2-acetamide, N-[4-[2-(3,4-dimethoxyphenyl)ethyl]phenyl]-2,3-dihydro-α,3dioxo]

- pIC50 ([1]; conjugated diene at 234 nm, pH 9.0, 24 °C, read-out: LDAH, concentration for 50% inhibition (IC)): 8.10
SMILES: CCCCCCCCCCc1ccc(NC(=O)C(=O)c2oc3cc(OC)c(OC)cc3c2O)cc1 [Example 119, 2-Benzofuranacetamide, N-[4-decylphenyl]-3-hydroxy-5,6-dimethoxy-α-oxo]

- LDAH, % Inhibition ([1]; 2.50 E -5 M): 0.0%
SMILES: O=C(Nc1ccc(CCc2ccc(O)c(O)c2)cc1)C1Oc2c(n(-c3ccccc3)c3ccc(O)cc23)C1=O (centres unmarked) [Example 163, 2H-Furo[3,2-b]indole-2-carboxamide, N-[4-[2-(3,4-dihydroxyphenyl)ethyl]phenyl]-3,4-dihydro-7-hydroxy-3-oxo-4-phenyl]

- LDAH, % Inhibition ([1]; 2.50 E -5 M): 0.0%
- 5LOA, % Inhibition ([2]; 1.00 E -5 M): 7.0%
- 5LOA, % Inhibition ([2]; 2.00 E -5 M): 2.0%
- 5LOA, % Inhibition ([2]; 2.00 E -6 M): 8.0%
SMILES: COc1ccc(CCc2ccc(NC(=O)C(=O)c3[nH]c4cc(C)c(C)cc4c3O)cc2)cc1OC [Example 175, 1H-Indole-2-acetamide, N-[4-[2-(3,4-dimethoxyphenyl)ethyl]phenyl]-3-hydroxy-5,6-dimethyl-α-oxo]
